Assay results published in PMC7532004, “Site-specific effects of neurosteroids on GABAA receptor activation and desensitization” (eLife, 2020).

Biological target: T1, α1β3 GABAAR (α1His-FLAGβ3) (Homo sapiens, UniProt P14867+P28472)
T1 construct: inserted between the fourth and fifth residues of the mature peptide; photolabeling full-length heteropentameric GABAARs in native membranes; expressed in transfected cells
T1 sequence (P14867 28-456): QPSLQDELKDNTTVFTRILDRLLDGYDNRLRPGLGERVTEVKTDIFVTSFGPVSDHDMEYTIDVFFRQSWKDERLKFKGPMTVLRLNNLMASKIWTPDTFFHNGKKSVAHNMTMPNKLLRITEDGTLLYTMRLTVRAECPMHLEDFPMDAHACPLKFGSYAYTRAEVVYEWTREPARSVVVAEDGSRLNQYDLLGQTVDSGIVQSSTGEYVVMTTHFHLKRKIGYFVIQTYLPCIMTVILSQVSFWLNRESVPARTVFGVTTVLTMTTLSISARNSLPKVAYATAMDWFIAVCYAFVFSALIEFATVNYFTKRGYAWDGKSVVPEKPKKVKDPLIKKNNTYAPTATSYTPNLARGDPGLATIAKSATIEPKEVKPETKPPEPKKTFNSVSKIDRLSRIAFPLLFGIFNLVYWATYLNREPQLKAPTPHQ
T1 sequence (P28472 26-473): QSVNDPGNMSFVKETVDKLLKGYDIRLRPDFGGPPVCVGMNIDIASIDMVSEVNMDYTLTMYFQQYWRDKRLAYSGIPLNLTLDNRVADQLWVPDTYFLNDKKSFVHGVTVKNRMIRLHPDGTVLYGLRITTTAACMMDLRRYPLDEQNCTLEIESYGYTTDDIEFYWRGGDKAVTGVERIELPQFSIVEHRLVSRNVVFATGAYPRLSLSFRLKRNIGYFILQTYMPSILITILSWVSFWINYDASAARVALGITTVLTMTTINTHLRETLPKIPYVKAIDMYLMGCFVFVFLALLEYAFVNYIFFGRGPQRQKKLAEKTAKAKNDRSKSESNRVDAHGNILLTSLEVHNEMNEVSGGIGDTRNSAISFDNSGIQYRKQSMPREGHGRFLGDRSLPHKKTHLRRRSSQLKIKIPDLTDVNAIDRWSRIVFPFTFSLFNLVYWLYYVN
Assay: Neurosteroid photolabeling and competition, middle-down mass spectrometry
Assay type: binding
Details: for Prevention of KK200 photolabeling of α1N408 in the α1 intrasubunit site / Prevention of KK200 photolabeling of β3G308 in the intersubunit site: 3 μM KK200; for Photolabeling efficiency of α1 subunit TM4 (Y415, α1 intrasubunit site) / Photolabeling efficiency of β3 subunit TM4 peptide (β3 intrasubunit site): 30 μM photolabeling reagent
Description: The syntheses of neurosteroid photolabeling reagents (KK148, KK150, KK200, KK123) are detailed in previous reports ([Jiang et al., 2016]; [Cheng et al., 2018]). […] For the photolabeling competition experiments, 3 μM KK200 or KK123 in the presence of 30 μM competitor (3α5αP, KK148, KK150, and 3β5αP) or the same volume of ethanol was added to the membrane proteins and incubated on ice for 1 hr. The samples were then irradiated in a quartz cuvette for 5 min, by using a photoreactor emitting light at >320 nm. The membrane proteins were then collected by centrifugation at 20,000 g at 4°C for 45 min. The photolabeled membrane proteins were resuspended in lysis buffer containing 1% n-dodecyl-β-D-maltoside (DDM), 0.25% cholesteryl hemisuccinate (CHS), 50 mM Tris (pH 7.5), 150 mM NaCl, 2 mM CaCl2, 5 mM KCl, 5 mM MgCl2, 1 mM EDTA, 10% glycerol at a final concentration of 1 mg/ml. The membrane protein suspension was homogenized using a glass mortar and a Teflon pestle and incubated at 4°C overnight. The protein lysate was centrifuged at 20,000 g at 4°C for 45 min and supernatant was incubated with 0.5 ml anti-FLAG agarose (Sigma) at 4°C for 2 hr. The anti-FLAG agarose was then transferred to an empty column, followed by washing with 20 ml washing buffer (50 mM triethylammonium bicarbonate and 0.05% DDM). The GABAARs were eluted with aliquots of 200 μg/ml FLAG tag peptide and 100 μg/ml 3X FLAG (ApexBio) in the washing buffer. The pooled eluates (9 ml) containing GABAARs were concentrated to 100 μl using 100 kDa cut-off centrifugal filters.
The purified α1β3 GABAAR (100 μl) was reduced with 5 mM tris(2-carboxyethyl)phosphine for 1 hr, alkylated with 5 mM N-ethylmaleimide (NEM) for 1 hr, and quenched with 5 mM dithiothreitol (DTT) for 15 min. These three steps were done at RT. Samples were then digested with 8 μg of trypsin for 7 days at 4°C to obtain maximal recovery of TMD peptides. The digestions were terminated by adding formic acid in a final concentration of 1%, followed directly by LC-MS analysis on an Orbitrap Elite mass spectrometer. 20 μl samples were injected into a home-packed PLRP-S (Agilent, Santa Clara, CA) column (10 cm ×75 μm, 300 Å), separated with a 145 min gradient from 10% to 90% acetonitrile, and introduced to the mass spectrometer at 800 nl/min with a nanospray source. MS acquisition was set as a MS1 Orbitrap scan (resolution of 60,000) followed by top 20 MS2 Orbitrap scans (resolution of 15,000) using data-dependent acquisition, and exclusion of singly charged precursors. Fragmentation was performed using high-energy dissociation with normalized energy of 35%. Analysis of data sets was performed using Xcalibur (Thermo Fisher Scientific) to manually search for TM1, TM2, TM3 or TM4 tryptic peptides with or without neurosteroid photolabeling modifications. Photolabeling efficiency was estimated by generating extracted chromatograms of unlabeled and labeled peptides, determining the area under the curve, and calculating the abundance of labeled peptide/(unlabeled + labeled peptide). Analysis of statistical significance comparing the photolabeling efficiency of KK200 and KK123 for α1β3 GABAAR was determined using one-way ANOVA with Bonferroni's multiple comparisons test and paired t-test, respectively (Prism 6, GraphPad Software, San Diego, CA). MS2 spectra of photolabeled TMD peptides were analyzed by manual assignment of fragment ions with and without photolabeling modification. Fragment ions were accepted based on the presence of a monoisotopic mass within 20 ppm mass accuracy. In addition to manual analysis, PEAKS (Bioinformatics Solutions Inc, Waterloo, ON, Canada) database searches were performed for data sets of photolabeled α1β3 GABAAR. […]

| Structure (SMILES) | Prevention of KK200 photolabeling of α1N408 in the α1 intrasubunit site (30 μM competitor) | Prevention of KK200 photolabeling of β3G308 in the intersubunit site (30 μM competitor) | Inhibition of KK123 photolabeling at the α1 (α1Y415) and β3 (β3Y442) intrasubunit sites (30 μM competitor, 3 μM KK123) | Photolabeling efficiency of α1 subunit TM4 (Y415, α1 intrasubunit site) | Photolabeling efficiency of β3 subunit TM4 peptide (β3 intrasubunit site) |
| --- | --- | --- | --- | --- | --- |
| CC(=O)[C@H]1CC[C@H]2[C@@H]3CC[C@H]4C[C@H](O)CC[C@]4(C)[C@H]3CC[C@]12C [3α5αP, allopregnanolone] | prevented | prevented | – | – | – |
| CC(=O)[C@H]1CC[C@H]2[C@@H]3CC[C@H]4C[C@@H](O)CC[C@]4(C)[C@H]3CC[C@]12C [3β5αP, epi-allopregnanolone] | prevented | does not bind to the intersubunit site | completely inhibited | – | – |
| C#CCCO[C@H]1CC[C@H]2[C@@H]3CC[C@H]4CC5(CC[C@]4(C)[C@H]3CC[C@]12C)N=N5 [KK148] | prevented | prevented | – | 0.77% | 0.13% |
| C#CCCO[C@@H]1CC[C@H]2[C@@H]3CC[C@H]4CC5(CC[C@]4(C)[C@H]3CC[C@]12C)N=N5 [KK150] | prevented | prevented | – | 0.62% | 0.19% |
